Assays:
3T3-L1 cells [1] = test: Oil Red O staining of triglycerides and lipids in 3T3-L1 cells; format: cell-based; settings: 100 nM, 3 to 5 days during terminal differentiation
Procedure: (§1) The effect of the Clk1 inhibitor DC677 or DC761 on 3T3-L1 cells was examined. 3T3-L1 cells were incubated with 50 nM TG003 (an inhibitor of Clk1), 100 nM DC677, or 100 nM DC761 for 3 to 5 days. Adipocytes were used as a control. UCP1 expression was determined (results are shown in FIG. 1A and FIG. 2A; RQ is reference quotient). Oil Red O (obtained from Sigma-Aldrich, St. Louis, Mo.) was used to stain triglycerides and lipids, and the levels of Oil Red O were determined by measuring absorbance at 520 nm (results are shown in FIG. 1C and FIG. 2C). MitoTracker™ Green (Thermo Fischer Scientific, Waltham, Mass.) was used to stain mitochondria, and levels were determined by measuring absorbance at 495 nm (results are shown in FIG. 1D and FIG. 2D).

PGC1α = PGC1α expression in 3T3-L1 cells; format: cell-based; settings: 100 nM, 3 to 5 days during terminal differentiation, vs adipocyte control
UCP1 = UCP1 expression in 3T3-L1 cells; format: cell-based; settings: 100 nM, 3 to 5 days during terminal differentiation, vs adipocyte control
Procedure: as §1

3T3-L1 cells [2] = test: Differentiation of 3T3-L1 cells into beige cells; format: cell-based; settings: for differentiation of 3T3-L1 cells into beige cells: 100 nM, 3 to 5 days
Procedure: as §1

Clk1 = settings: stated as 'may be about'; no test described; cited from earlier work
3T3-L1 cells [3] = test: MitoTracker Green staining of mitochondria in 3T3-L1 cells; format: cell-based; settings: dose of 100 nM
Procedure: as §1
The effect of the Clk1 inhibitor DC677 on 3T3-L1 cells was examined with fluorescence microscopy. 3T3-L1 cells were cultured in a 12-well plate and differentiated by […] (MDI). The cells were then incubated with insulin, TG003, or DC677. On day 8, the cells were stained with MitoTracker™ Green (Thermo Fischer Scientific, Waltham, Mass.). In FIG. 3, the cell treatment is as follows: (1) insulin as a control; (2) 50 nm TG003 added on day 2; (3) 50 nm TG003 added on day 4; (4) 100 nm DC677 added on day 2; (5) 100 nm DC677 added on day 4; and (6) 100 nm DC677 added on day 6.

SMILES | lipid storage and lipid droplet size (3T3-L1 cells [1]) | PGC1α expression (PGC1α) | UCP1 expression (UCP1) | differentiation of 3T3-L1 cells into beige cells (3T3-L1 cells [2]) | IC50 (Clk1) | performance compared with TG003 (3T3-L1 cells [2]; 100 nM DC677 vs 50 nM TG003) | mitochondrial biogenesis, effectiveness compared to TG003 at 50 nM (3T3-L1 cells [3])
CC(=O)Nc1cccc(N2C(=O)c3cccc4cc([N+](=O)[O-])cc(c34)C2=O)c1 [DC761, N-[3-(5-nitro-1,3-dioxo-1H-benzo[de]isoquinolin-2(3H)-yl)phenyl]acetamide] | stored fewer lipids in smaller lipid droplets | increased | increased | can differentiate into “beige” cells | – | – | –
O=C1Nc2ccc(Br)cc2/C1=C\c1nc2ccccc2c(=O)n1Cc1ccccc1 [DC677, 3-benzyl-2-[(5-bromo-2-oxo-1,2-dihydro-3H-indol-3-ylidene)methyl]-4(3H)-quinazolinone] | stored fewer lipids in smaller lipid droplets | increased | increased | can differentiate into “beige” cells | – | performs equally well to TG003 | highly effective

Source: US10828304B2, “Compositions and methods for white to beige adipogenesis” (University of South Florida, priority 2017, dated 2020)
